This note sets out measurements from patent US4544658A, “1-Cyclopropyl-6-fluoro-1,4-dih ydro-4-oxo-7-(alkyl-1-piperazinyl)quinoline-3-carboxylic acids, processes for their preparation and antibacterial agents containing them” (Bayer Aktiengesellschaft, priority 1982, dated 1985).

Converted amounts (≈) assume the structure as drawn. Where only a bound is given, the exact number is not on record here.

Common to all, as to experiment: MIC, agar dilution test; Denley multipoint inoculation procedure
Holding throughout (type): cell-based
(Agar dilution tests growth on a series of plates holding different concentrations.)

The test system of one experiment is Staphylococcus 1756. Conditions: read-out: Minimum inhibitory concentration (MIC).
For a further experiment, the system named is E. coli Neumann. Conditions: Escherichia coli, read-out: Minimum inhibitory concentration (MIC).
The subject of another experiment is Serratia 16040. Conditions: read-out: Minimum inhibitory concentration (MIC).
The next experiment concerns Klebsiella 6179. Conditions: read-out: Minimum inhibitory concentration (MIC).
Another experiment deals with Klebsiella 8085. Particulars: read-out: Minimum inhibitory concentration (MIC).
The subject of another experiment is Staphylococcus 133. Conditions: read-out: Minimum inhibitory concentration (MIC).
Another experiment has as its system Staphylococcus Fk422. Conditions: read-out: Minimum inhibitory concentration (MIC).
The subject of a further experiment is Klebsiella 57 USA. Conditions: read-out: Minimum inhibitory concentration (MIC).
Another experiment relates to Providencia 12052. Particulars: read-out: Minimum inhibitory concentration (MIC).

On to `CC1CN(c2cc3c(cc2F)c(=O)c(C(=O)O)cn3C2CC2)CCN1` (stereo not drawn) [Example 1, 1-cyclopropyl-6-fluoro-1,4-dihydro-4-oxo-7-(3-methyl-1-piperazinyl)quinoline-3-carboxylicacid semihydrate], for which the MIC with Staphylococcus 1756 is 0.25 µg/mL; in the experiment on E. coli Neumann, at most 0.015 µg/mL; with Serratia 16040, 4 µg/mL; with Klebsiella 6179 it was 0.125 µg/mL; with Klebsiella 8085, at most 0.015 µg/mL; in the experiment on Staphylococcus 133, 0.25 µg/mL. Also, the MIC in the experiment with Staphylococcus Fk422 is 0.25 µg/mL; in the experiment with Klebsiella 57 USA it was 0.03 µg/mL; with Providencia 12052, 16 µg/mL.

Take `C[C@@H]1CN(c2cc3c(cc2F)c(=O)c(C(=O)O)cn3C2CC2)C[C@H](C)N1` [Example 3, 1-cyclopropyl-6-fluoro-1,4-dihydro-4-oxo-7-(3,5-dimethyl-1-piperazinyl)quinoline-3-carboxylic acid]: the MIC is 0.25 µg/mL (≈ 0.696 µM) in the experiment on Staphylococcus 1756; at most 0.015 µg/mL in the experiment with E. coli Neumann; 16 µg/mL (≈ 44.5 µM) in the experiment with Serratia 16040; 0.25 µg/mL (≈ 0.696 µM) in the experiment on Klebsiella 6179; at most 0.015 µg/mL in the experiment with Klebsiella 8085; 0.25 µg/mL (≈ 0.696 µM) in the experiment on Staphylococcus 133. Further, the MIC in the experiment on Staphylococcus Fk422 is 0.5 µg/mL (≈ 1.39 µM); in the experiment with Klebsiella 57 USA, 0.125 µg/mL (≈ 0.348 µM); with Providencia 12052 it was 16 µg/mL (≈ 44.5 µM).

As to `CCN1[C@H](C)CN(c2cc3c(cc2F)c(=O)c(C(=O)O)cn3C2CC2)C[C@@H]1C` [Example 5, 1-cyclopropyl-6-fluoro-1,4-dihydro-4-oxo-7-(4-ethyl-3,5-dimethyl-1-piperazinyl)quinoline-3-carboxylic acid hydriodide], the MIC with Staphylococcus 1756 was found to be 0.5 µg/mL (≈ 1.29 µM); in the experiment with E. coli Neumann it was 0.03 µg/mL (≈ 0.0774 µM); in the experiment on Serratia 16040, 32 µg/mL (≈ 82.6 µM); in the experiment on Klebsiella 6179, 0.5 µg/mL (≈ 1.29 µM); with Klebsiella 8085, 0.03 µg/mL (≈ 0.0774 µM); with Staphylococcus 133, 0.5 µg/mL (≈ 1.29 µM). Also, the MIC turned out to be 0.5 µg/mL (≈ 1.29 µM) with Staphylococcus Fk422, 0.5 µg/mL (≈ 1.29 µM) in the experiment on Klebsiella 57 USA and 32 µg/mL (≈ 82.6 µM) in the experiment on Providencia 12052.

On to `CCN1CCN(c2cc3c(cc2F)c(=O)c(C(=O)O)cn3C2CC2)CC1C.I.O` (stereo not drawn) [Example 4, 1-cyclopropyl-6-fluoro-1,4-dihydro-4-oxo-7-(4-ethyl-3-methyl-1-piperazinyl)quinoline-3-carboxylic acid hydriodide monohydrate], for which the MIC with Staphylococcus 1756 was 0.5 µg/mL; with E. coli Neumann, 0.03 µg/mL; in the experiment on Serratia 16040 it was 16 µg/mL; with Klebsiella 6179, 0.25 µg/mL; in the experiment with Klebsiella 8085, at most 0.015 µg/mL; in the experiment with Staphylococcus 133, 0.25 µg/mL. In addition, the figures for the MIC with Staphylococcus Fk422, in the experiment on Klebsiella 57 USA and in the experiment with Providencia 12052 were 0.5 µg/mL, 0.25 µg/mL and 32 µg/mL, respectively.
